Data published in ChEMBL document CHEMBL4350984, “Natural products as multidrug resistance modulators in cancer” (Eur J Med Chem, 2019).

How the values were obtained:
Homo sapiens [1] = organism: Homo sapiens; assay: Inhibition of BCRP-mediated mitoxantrone efflux in human NCI-H460/MX20 cells assessed as mitoxantrone accumulation at 10 uM after 15 mins by Hoechst 33342 staining based flow cytometry analysis relative to control; format: cell-based; design: scale not given: the % may be the effect or the level left
[2] = Cytotoxicity against human KBv200 cells assessed as reduction in cell viability; format: functional, cell-based
cells = conditions: Homo sapiens, 72 h
Description: Downregulation of ABCB1 gene expression in human EPG85-257RDB cells after 72 hrs by RT-PCR analysis

Homo sapiens [3] = organism: Homo sapiens; assay: Inhibition of BCRP-mediated mitoxantrone efflux in human NCI-H460/MX20 cells assessed as mitoxantrone accumulation at 20 uM after 15 mins by Hoechst 33342 staining based flow cytometry analysis relative to control; format: cell-based; design: scale not given: the % may be the effect or the level left

SMILES: COc1ccc2c3c([nH]c2c1)[C@H](C=C(C)C)N1C(=O)[C@@H]2CCCN2C(=O)[C@@H]1C3
- Activity (Homo sapiens [1]): 100%

SMILES: COc1ccc2cc1Oc1ccc(cc1)C[C@H]1c3cc(c(OC)cc3CCN1C)Oc1c(OC)c(OC)cc3c1[C@H](C2)N(C)CC3 [FANCHININ]
- IC50 [2]: 2 µM

SMILES: O=c1c(O)c(-c2ccc(O)c(O)c2)oc2cc(O)cc(O)c12 [QUERCETIN]
- IC50 (cells): 12 µM

SMILES: COC(=O)c1c(-c2ccc(O)cc2)c(-c2ccc(O)cc2)cn1CC(=O)c1ccc(OC)cc1
- Activity (Homo sapiens [3]): 94.5%
